Measured values from patent EP4603105A1, “PHARMACEUTICAL COMPOSITION CONTAINING CYCLIC COMPOUND HAVING SELECTIVE KRAS INHIBITORY EFFECT AGAINST HRAS AND NRAS” (CHUGAI SEIYAKU KABUSHIKI KAISHA, priority 2022, dated 2024).
Read-outs that look alike come from different tables or passages of the source. Where a SMILES comes first, the peptide text is derived from it. Bridges are numbered along the chain shown (N, C = ends). [ ]: non-standard residue; d: D form. The star is where a group is joined. hPhe(3,5-F2-4-CF3) = N[C@@H](CCc1cc(F)c(C(F)(F)F)c(F)c1)C(=O)O; hPhe(3-Cl-4-CF3) = N[C@@H](CCc1ccc(C(F)(F)F)c(Cl)c1)C(=O)O; NPrPhe(4-CF3) = CCCN[C@@H](Cc1ccc(C(F)(F)F)cc1)C(=O)O; NMeAbu(4,4,4-F3) = CN[C@@H](CC(F)(F)F)C(=O)O; NMePhe(4-Me) = CN[C@@H](Cc1ccc(C)cc1)C(=O)O; NMeGly(cPent) = CN[C@H](C(=O)O)C1CCCC1; Pro(4,4-F2) = O=C(O)[C@@H]1CC(F)(F)CN1; NMeD = CN[C@@H](CC(=O)O)C(=O)O; NMeL = CN[C@@H](CC(C)C)C(=O)O; Morpholide = C1CN(*)CCO1; NMeA = CN[C@@H](C)C(=O)O; Ac5c = NC1(C(=O)O)CCCC1; Aze = O=C(O)[C@@H]1CCN1; NEtG = CCNCC(=O)O; Sar = CNCC(=O)O

Experiments:
HRAS wild-type protein = HRAS wild-type protein (Homo sapiens, UniProt P01112); experiment: Binding to HRAS by surface plasmon resonance (SPR), KD and KD ratio to KRAS
Method in brief: (§1)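 Biotinylated GDP-bound RAS was captured at about 100–300 RU. Running buffer: HBS pH 7.4, 10 mM MgCl2, 10 µM GDP, 1 mM DTT, 0.01% Tween 20, 4% DMSO.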

[1] = system: human lung cancer strain NCI-H441; assay type: cell-based
Method in brief: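 Step one: dispense the test compound in serial DMSO dilutions. Step three: add the reagent and measure […].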

[2] = molecular target: GDP-bound NRAS wild-type protein (Homo sapiens, UniProt P01111); experiment: Binding to NRAS by surface plasmon resonance (SPR), KD and KD ratio to KRAS
Method in brief: as §1

[3] = ratio of KD for HRAS wild-type protein to KD for KRAS
[4] = ratio of KD for GDP-bound NRAS wild-type protein to KD for KRAS
[5] = ratio of the KD value with respect to HRAS wild-type protein to the KD value with respect to KRAS
[6] = ratio of the KD value with respect to GDP-bound NRAS wild-type protein to the KD value with respect to KRAS
[7] = ratio of KD value for HRAS wild-type protein to KD value for KRAS (SPR)
[8] = ratio of KD value for GDP-bound NRAS wild-type protein to KD value for KRAS (SPR)

Chain of HRAS wild-type protein (P01112 whole entry): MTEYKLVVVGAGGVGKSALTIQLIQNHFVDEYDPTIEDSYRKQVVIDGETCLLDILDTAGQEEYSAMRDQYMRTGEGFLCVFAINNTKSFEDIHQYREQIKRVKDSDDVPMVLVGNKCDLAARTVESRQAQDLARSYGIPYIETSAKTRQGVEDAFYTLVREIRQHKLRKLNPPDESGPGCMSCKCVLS
Chain of GDP-bound NRAS wild-type protein (P01111 whole entry): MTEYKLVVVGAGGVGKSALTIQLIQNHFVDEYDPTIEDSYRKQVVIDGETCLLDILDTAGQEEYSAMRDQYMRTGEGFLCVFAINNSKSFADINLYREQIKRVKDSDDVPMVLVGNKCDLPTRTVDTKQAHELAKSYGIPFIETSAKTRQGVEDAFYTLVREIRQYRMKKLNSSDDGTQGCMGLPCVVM

Row | Compound | HRAS /KRAS (HRAS wild-type protein; [3]) | IC50 [1] [µM] | NRAS /KRAS [2, 4] | HRAS /KRAS (HRAS wild-type protein; [5]) | NRAS /KRAS [2, 6] | HRAS /KRAS (HRAS wild-type protein; [7]) | NRAS /KRAS [2, 8] | IC50 ([1]; NCI-H441 cells, 4 days, CellTiter-Glo, read-out: NCl-H441 IC50) [µM]
1 | CCCN1C(=O)CN(C)C(=O)[C@@H]2CCN2C(=O)[C@H]([C@@H](C)CC)NC(=O)[C@H](CC(C)C)N(C)C(=O)C[C@@H](C(=O)N2CCOCC2)N(C)C(=O)[C@H](C2CCCC2)N(C)C(=O)C2(CCCC2)NC(=O)[C@@H]2CCCN2C(=O)[C@H](CCc2cc(F)c(C(F)(F)F)c(F)c2)NC(=O)CN(C)C(=O)[C@@H]1Cc1ccc(C(F)(F)F)cc1 [PP0770] ([NMeL]I[Aze][Sar][NPrPhe(4-CF3)][Sar][hPhe(3,5-F2-4-CF3)]P[Ac5c][NMeGly(cPent)][NMeD]-Morpholide; lactam N-11) | B (a compound having 3 or more and less than 10 is denoted as B) | 0.0622 | B (a compound having 3 or more and less than 10 is denoted as B) |  |  |  |  | 
2 | CCO[C@@H]1C[C@H]2C(=O)NC3(CCC3)C(=O)N(C)[C@@H](C3CCCC3)C(=O)N(C)[C@H](C(=O)N(C)C)CC(=O)N(C)[C@@H](CC(C)C)C(=O)N[C@@H]([C@@H](C)CC)C(=O)N3CC[C@H]3C(=O)N(C)[C@H]3C[C@@H](C)CCN(C3=O)[C@@H](Cc3ccc(C(F)(F)F)cc3)C(=O)N(C)CC(=O)N[C@@H](CCc3cc(F)c(C(F)(F)F)c(F)c3)C(=O)N2C1 [PP1019] | B (a compound having 3 or more and less than 10 is denoted as B) | 0.0074 | C (A compound having a KD ratio of 0.1 or more and less than 3 is denoted as C) |  |  |  |  | 
3 | CC[C@H](C)[C@@H]1NC(=O)[C@H](CC(C)C)N(C)C(=O)C[C@@H](C(=O)N2CCC2)N(C)C(=O)[C@H](C2CCCC2)N(C)C(=O)C2(CCCC2)NC(=O)[C@@H]2CCCN2C(=O)[C@H](CCc2cc(F)c(C(F)(F)F)c(F)c2)NC(=O)CN(C)C(=O)[C@H](Cc2ccc(C(F)(F)F)cc2)N2CCCC[C@@H](C2=O)N(C)C(=O)CN(C)C1=O [PP0570] |  | 0.0075 |  | B (a compound having 3 or more and less than 10 is denoted as B) | B (a compound having 3 or more and less than 10 is denoted as B) |  |  | 
4 | CCC[C@H]1C(=O)N[C@@H]([C@@H](C)CC)C(=O)N(C)CC(=O)N(C)[C@H]2C/C=C\CCN(C2=O)[C@@H](Cc2ccc(C(F)(F)F)cc2)C(=O)N(C)CC(=O)N[C@@H](CCc2ccc3sc(C)c(C)c3c2)C(=O)N2C[C@H](OCC)C[C@H]2C(=O)NC2(CC(C)(C)C2)C(=O)N(C)[C@@H](C2CCCC2)C(=O)N(C)[C@H](C(=O)N(C)C)CC(=O)N1C [PP2889] | A (a compound having 10 or more and less than 20 is denoted as A) | 0.0209 | A (a compound having 10 or more and less than 20 is denoted as A) |  |  |  |  | 
5 | CCCN(C)C(=O)[C@@H]1CC(=O)N(C)[C@@H](CC)C(=O)N[C@@H]([C@@H](C)CC)C(=O)N(C)CC(=O)N(C)[C@H]2C/C=C\CCN(C2=O)[C@@H](Cc2ccc(C(F)(F)F)cc2)C(=O)N(C)CC(=O)N[C@@H](CCc2cc(F)c(C(F)(F)F)c(F)c2)C(=O)N2C[C@H](OCC)C[C@H]2C(=O)NC2(CC(C)(C)C2)C(=O)N(C)[C@@H](C2CCCC2)C(=O)N1C [PP1670] |  | 0.0067 |  |  |  | A (a compound having 10 or more and less than 20 is denoted as A) | A (a compound having 10 or more and less than 20 is denoted as A) | 
6 | CCO[C@@H]1C[C@H]2C(=O)NC3(CC(C)(C)C3)C(=O)N(C)[C@@H](C(CC)CC)C(=O)N(C)[C@H](C(=O)N(C)C)CC(=O)N(C)[C@@H](CC3CCC3)C(=O)N[C@@H]([C@@H](C)CC)C(=O)N(C)CC(=O)N(C)[C@H]3C/C=C\CCN(C3=O)[C@@H](Cc3ccc(C)cc3)C(=O)N(C)CC(=O)N[C@@H](CCc3ccc(C(F)(F)F)c(OC)c3)C(=O)N2C1 [PP2172] |  | 0.0058 |  | B (a compound having 3 or more and less than 10 is denoted as B) | A (a compound having 10 or more and less than 20 is denoted as A) |  |  | 
7 | CCCOC[C@H]1C(=O)N[C@@H]([C@@H](C)CC)C(=O)N(C)CC(=O)N(C)[C@H]2C/C=C\CCN(C2=O)[C@@H](Cc2ccc(C)cc2)C(=O)N(C)CC(=O)N[C@@H](CCc2ccc(C(F)(F)F)c(Cl)c2)C(=O)N2C[C@H](C)C[C@H]2C(=O)NC2(CC(C)(C)C2)C(=O)N(C)[C@@H](C2CCCC2)C(=O)N(C)[C@H](C(=O)N(C)C)CC(=O)N1C [PP2234] |  | 0.0111 |  | A (a compound having 10 or more and less than 20 is denoted as A) | A (a compound having 10 or more and less than 20 is denoted as A) |  |  | 
8 | CCCN1C(=O)CN(C)C(=O)CN(CC)C(=O)[C@H]([C@@H](C)CC)NC(=O)[C@H](CC(C)C)N(C)C(=O)C[C@@H](C(=O)N2CCOCC2)N(C)C(=O)[C@H](C2CCCC2)N(C)C(=O)C2(CCCC2)NC(=O)[C@@H]2CC(F)(F)CN2C(=O)[C@H](CCc2ccc(C(F)(F)F)c(Cl)c2)NC(=O)CN(C)C(=O)[C@@H]1Cc1ccc(C(F)(F)F)cc1 [PP0399] ([NMeL]I[NEtG][Sar][NPrPhe(4-CF3)][Sar][hPhe(3-Cl-4-CF3)][Pro(4,4-F2)][Ac5c][NMeGly(cPent)][NMeD]-Morpholide; lactam N-11) |  | 0.0063 |  | C (A compound having a KD ratio of 0.1 or more and less than 3 is denoted as C) | B (a compound having 3 or more and less than 10 is denoted as B) |  |  | 
9 | CCC[C@H]1C(=O)N[C@@H]([C@@H](C)CC)C(=O)N(C)CC(=O)N(C)[C@H]2C/C=C\CCN(C2=O)[C@@H](Cc2ccc(C)cc2)C(=O)N(C)CC(=O)N[C@@H](CCc2ccc3c(C)c(C)n(C)c3c2)C(=O)N2C[C@H](OCC)C[C@H]2C(=O)NC2(CC(C)(C)C2)C(=O)N(C)[C@@H](C2CCCC2)C(=O)N(C)[C@H](C(=O)N(C)C)CC(=O)N1C [PP2895] | A (a compound having 10 or more and less than 20 is denoted as A) | 0.059 | A (a compound having 10 or more and less than 20 is denoted as A) |  |  |  |  | 
10 | CCC[C@H]1C(=O)N[C@@H]([C@@H](C)CC)C(=O)N(C2CC2)CC(=O)N(C)[C@H]2C/C=C\CCN(C2=O)[C@@H](Cc2ccc(C)cc2)C(=O)N(C)CC(=O)N[C@@H](CCc2ccc(C3CC3)c(C)c2)C(=O)N2C[C@H](OCC)C[C@H]2C(=O)NC2(CC(C)(C)C2)C(=O)N(C)[C@@H](C2CCCC2)C(=O)N(C)[C@H](C(=O)N(C)C)CC(=O)N1C [PP2886] | A (a compound having 10 or more and less than 20 is denoted as A) |  | A (a compound having 10 or more and less than 20 is denoted as A) |  |  |  |  | 0.112
11 | CCO[C@@H]1C[C@H]2C(=O)NC3(CCC3)C(=O)N(C)[C@@H](C3CCCC3)C(=O)N(C)[C@H](C(=O)N(C)C)CC(=O)N(C)[C@@H](COC)C(=O)N[C@@H]([C@@H](C)CC)C(=O)N3CC[C@H]3C(=O)N(C)[C@H]3CCCCCN(C3=O)[C@@H](Cc3ccc(C(F)(F)F)cc3)C(=O)N(C)CC(=O)N[C@@H](CCc3cc(F)c(C(F)(F)F)c(F)c3)C(=O)N2C1 [PP0864] | B (a compound having 3 or more and less than 10 is denoted as B) | 0.185 | B (a compound having 3 or more and less than 10 is denoted as B) |  |  |  |  | 
12 | CC[C@H](C)[C@@H]1NC(=O)[C@H](CC(F)(F)F)N(C)C(=O)C[C@@H](C(=O)N(C)C)N(C)C(=O)[C@H](C2CCCC2)N(C)C(=O)C2(CC(C)(C)C2)NC(=O)[C@@H]2C[C@H](C)CN2C(=O)[C@H](CCc2cc(F)c(C(F)(F)F)c(F)c2)NC(=O)CN(C)C(=O)[C@H](Cc2ccc(C(F)(F)F)cc2)N2CC/C=C\C[C@@H](C2=O)N(C)C(=O)CN(C)C1=O [PP1682] |  | 0.0026 |  |  |  | A (a compound having 10 or more and less than 20 is denoted as A) | AA (a compound having 20 or more is denoted as AA) | 
13 | CCCN1C(=O)CN(C)C(=O)[C@@H]2CCN2C(=O)[C@H]([C@@H](C)CC)NC(=O)[C@H](CC(C)C)N(C)C(=O)C[C@@H](C(=O)N2CCOCC2)N(C)C(=O)[C@H](CC(F)(F)F)N(C)C(=O)C2(CCCC2)NC(=O)[C@@H]2CCCN2C(=O)[C@H](CCc2cc(F)c(C(F)(F)F)c(F)c2)NC(=O)CN(C)C(=O)[C@@H]1Cc1ccc(C(F)(F)F)cc1 [PP0784] ([NMeL]I[Aze][Sar][NPrPhe(4-CF3)][Sar][hPhe(3,5-F2-4-CF3)]P[Ac5c][NMeAbu(4,4,4-F3)][NMeD]-Morpholide; lactam N-11) | B (a compound having 3 or more and less than 10 is denoted as B) | 0.447 | B (a compound having 3 or more and less than 10 is denoted as B) |  |  |  |  | 
14 | CC[C@H](C)[C@@H]1NC(=O)[C@H](CC(C)C)N(C)C(=O)C[C@@H](C(=O)N2CCOCC2)N(C)C(=O)[C@H](C2CCCC2)N(C)C(=O)C2(CCCC2)NC(=O)[C@@H]2CCCN2C(=O)[C@H](CCc2ccc(C(F)(F)F)c(Cl)c2)NC(=O)CN(C)C(=O)[C@H](Cc2ccc(C)cc2)N(C)C(=O)[C@@H]2CCN2C(=O)[C@H](C)N(C)C1=O [PP0001] ([NMeL]I[NMeA][Aze][NMePhe(4-Me)][Sar][hPhe(3-Cl-4-CF3)]P[Ac5c][NMeGly(cPent)][NMeD]-Morpholide; lactam N-11) | C (A compound having a KD ratio of 0.1 or more and less than 3 is denoted as C) | 0.0063 | C (A compound having a KD ratio of 0.1 or more and less than 3 is denoted as C) |  |  |  |  | 
15 | CCO[C@@H]1C[C@H]2C(=O)NC3(CCC3)C(=O)N(C)[C@@H](C3CCCC3)C(=O)N(C)[C@@H](C(C)C)CC(=O)N(C)[C@@H](CC3CC3)C(=O)N[C@@H]([C@@H](C)CC)C(=O)N(C)CC(=O)N(C)[C@H]3C/C=C\CCN(C3=O)[C@@H](Cc3ccc(C(F)(F)F)cc3)C(=O)N(C)CC(=O)N[C@@H](CCc3cc(F)c(C(F)(F)F)c(F)c3)C(=O)N2C1 [PP1596] |  | 0.0181 |  |  |  | B (a compound having 3 or more and less than 10 is denoted as B) | A (a compound having 10 or more and less than 20 is denoted as A) | 
